According to ChEMBL document CHEMBL1201862, “PubChem BioAssay data set” (2004):
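Results reflect a 48-hour exposure of cells in 96-well plates to compound at five concentrations. At the GI50, growth is halved.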 Active and inactive are the calls of the source. No stated cut-off is given here; in the data, active = GI50 up to about 1.1 µM and inactive = higher.

Key:
Assay in all cases: inhibition of tumour cell growth, NCI panel, 48 h
Hs-578T = tested on: Hs-578T
MOLT-4 = tested on: MOLT-4
LOX IMVI = tested on: LOX IMVI
HCT-116 = tested on: HCT-116
SN12C = tested on: SN12C
SF-295 = tested on: SF-295
UACC-257 = tested on: UACC-257
SK-MEL-2 = tested on: SK-MEL-2
A498 = tested on: A498
RPMI-8226 = tested on: RPMI-8226
HCT-15 = tested on: HCT-15
SK-OV-3 = tested on: SK-OV-3
BT-549 = tested on: BT-549
SNB-19 = tested on: SNB-19
U-251 = tested on: U-251
CAKI-1 = tested on: CAKI-1
DU-145 = tested on: DU-145
SW-620 = tested on: SW-620
IGROV-1 = tested on: IGROV-1
Malme-3M = tested on: Malme-3M

Row | SMILES | GI50 (Hs-578T) | GI50 (MOLT-4) | GI50 (LOX IMVI) | GI50 (HCT-116) | GI50 (SN12C) | GI50 (SF-295) | GI50 (UACC-257) | GI50 (SK-MEL-2) | GI50 (A498) | GI50 (RPMI-8226) | GI50 (HCT-15) [µM] | GI50 (SK-OV-3) | GI50 (BT-549) | GI50 (SNB-19) | GI50 (U-251) | GI50 (CAKI-1) | GI50 (DU-145) | GI50 (SW-620) | GI50 (IGROV-1) | GI50 (Malme-3M)
1 | COc1ccc(/C=C/C(=O)N[C@@H]2C(=O)N3[C@@H]2SC(C)(C)[C@@H]3C(=O)O)cc1 | > 100 µM (inactive) | > 100 µM (inactive) | > 100 µM (inactive) | > 100 µM (inactive) | > 100 µM (inactive) | > 100 µM (inactive) | > 100 µM (inactive) | > 100 µM (inactive) | > 100 µM (inactive) | > 100 µM (inactive) | > 100 | > 100 µM (inactive) | > 100 µM (inactive) | > 100 µM (inactive) | > 100 µM (inactive) | > 100 µM (inactive) | > 100 µM (inactive) | > 100 µM (inactive) | – | –
2 | COc1cc2c(cc1OC)C(N)CC2=O (centres undefined) | > 100 µM (inactive) | > 100 µM (inactive) | > 100 µM (inactive) | > 100 µM (inactive) | > 100 µM (inactive) | > 100 µM (inactive) | > 100 µM (inactive) | > 100 µM (inactive) | > 100 µM (inactive) | > 100 µM (inactive) | > 100 | > 100 µM (inactive) | > 100 µM (inactive) | > 100 µM (inactive) | > 100 µM (inactive) | > 100 µM (inactive) | > 100 µM (inactive) | > 100 µM (inactive) | > 100 µM (inactive) | –
3 | Cc1cn(C2CC(Br)C(COC(c3ccccc3)(c3ccccc3)c3ccccc3)O2)c(=O)[nH]c1=O (centres undefined) | 14.6 µM (inactive) | 8.17 µM (inactive) | 11.9 µM (inactive) | 8.2 µM (inactive) | 14.7 µM (inactive) | 9.68 µM (inactive) | 16.1 µM (inactive) | 14.6 µM (inactive) | 15.3 µM (inactive) | 4.7 µM (inactive) | – | – | 12 µM (inactive) | 16.3 µM (inactive) | 12.3 µM (inactive) | 15.1 µM (inactive) | 14.5 µM (inactive) | 14.3 µM (inactive) | 14.2 µM (inactive) | 17.6 µM (inactive)
4 | COc1ccc(C2c3cc4c(c(OC)c3CC3OCC(=O)C32)OCO4)cc1OC (centres undefined) | < 0.01 µM (active) | 0.13 µM (active) | 0.0518 µM (active) | 0.0516 µM (active) | < 0.01 µM (active) | 0.0307 µM (active) | – | 0.78 µM (active) | 0.0783 µM (active) | 0.0501 µM (active) | 0.0417 | 0.0405 µM (active) | 0.0914 µM (active) | 0.0538 µM (active) | 0.0504 µM (active) | 0.0405 µM (active) | 0.0218 µM (active) | 0.0366 µM (active) | < 0.01 µM (active) | –
5 | Cc1nc2ccccc2c(=O)n1-c1n[nH]c2ccccc12 | > 100 µM (inactive) | > 100 µM (inactive) | > 100 µM (inactive) | > 100 µM (inactive) | > 100 µM (inactive) | > 100 µM (inactive) | > 100 µM (inactive) | > 100 µM (inactive) | > 100 µM (inactive) | > 100 µM (inactive) | > 100 | – | > 100 µM (inactive) | > 100 µM (inactive) | > 100 µM (inactive) | > 100 µM (inactive) | > 100 µM (inactive) | > 100 µM (inactive) | > 100 µM (inactive) | > 100 µM (inactive)
6 | CC(C)[C@H](O)C(=O)N[C@H]1Cc2ccc3c(c2)[C@]24C5=C(N=C(O5)[C@H](C(C)C)NC1=O)c1nc(Cl)c(o1)-c1c(Cl)[nH]c5cccc(c15)-c1cccc2c1N[C@H]4O3 | 0.00256 µM (active) | 0.001 µM (active) | 0.00392 µM (active) | 0.00339 µM (active) | – | 0.0167 µM (active) | 0.0229 µM (active) | – | 1.27 µM (inactive) | – | 0.0392 | 0.001 µM (active) | 0.00863 µM (active) | 0.00644 µM (active) | 0.00547 µM (active) | 0.0968 µM (active) | 0.00524 µM (active) | 0.00671 µM (active) | 0.00342 µM (active) | 0.00643 µM (active)
